Data reported in patent publication US8759368B2, “Benzoic acid, benzoic acid derivatives and heteroaryl carboxylic acid conjugates of hydrocodone, prodrugs, methods of making and use thereof” (KemPharma, Inc., priority 2009, dated 2014).

Key:
[1] = Chemical stability: hydrolysis to hydrocodone in 1 N HCl for 1 hour; conditions: for %-release in 1N HCl, ambient: ambient temperature (~20° C.); for %-release in 1N HCl, 100° C.: oil bath at 100° C.
[2] = Chemical stability: hydrolysis in 5% NaHCO3 for one hour; format: physicochemical; conditions: 5% NaHCO3, one hour; for %-release in 5% NaHCO3, ambient: ambient temperature (~20° C.); for %-release in 5% NaHCO3, 100° C.: oil bath at 100° C.
[3] = Water solubility / hydrophobicity of conjugates (feasibility of intranasal or intravenous dosing); conditions: for hydrophobic character (in words): do not dissolve in a practical amount of water for intravenous dosing at oral equivalent doses; for water solubility (in words): mixed with water, basis for intranasal or intravenous dosing in rats
[4] = Intranasal PK in rats, plasma hydrocodone and hydromorphone by LC-MS/MS; conditions: equivalent to 2 mg/kg hydrocodone freebase
[5] = Oral PK in rats, plasma hydrocodone, hydromorphone and intact conjugate by LC-MS/MS
[6] = Oral PK in dogs, plasma intact Bz-HC, hydrocodone and hydromorphone by LC-MS/MS; conditions: equivalent to 2 mg/kg freebase hydrocodone, FIG. 17
[7] = Chemical stability: hydrolysis of conjugate in water for one hour; format: physicochemical; conditions: for water, ambient (amount of conjugate hydrolyzed): ambient temperature (about 20° C.); for water, 100° C. (amount of conjugate hydrolyzed): oil bath at 100° C.
Method: Exemplary conjugates of hydrocodone of the present technology and control test conjugates not of the present technology were tested for chemical stability under conditions similar to what a potential drug abuser may use to “extract” the active portion of the molecule, for example dissolved in water, hydrochloric acid or sodium bicarbonate either at ambient temperature or 100° C.

[8] = equivalent to 2 mg/kg freebase hydrocodone, FIG. 14
[9] = equivalent to 2 mg/kg hydrocodone freebase, FIG. 11
[10] = equivalent to 2 mg/kg hydrocodone freebase, FIG. 12

| Molecule | %-release in 1N HCl, ambient [1] [%] | %-release in 1N HCl, 100° C. [1] [%] | %-release in 5% NaHCO3, ambient [2] [%] | %-release in 5% NaHCO3, 100° C. [2] [%] | hydrophobic character (in words) [3] | water solubility (in words) [3] | other results |
| --- | --- | --- | --- | --- | --- | --- | --- |
| COc1ccc(C(=O)OC2=CC[C@H]3[C@H]4Cc5ccc(OC)c6c5[C@@]3(CCN4C)C2O6)cc1O (stereo partly shown) [3-OH-4-MeO-Bz-HC] | 0 | 35 | 0 | 36 | hydrophobic | poorly water soluble |  |
| COc1ccc2c3c1OC1C(OC(=O)CCCCC(=O)O)=CC[C@H]4[C@@H](C2)N(C)CC[C@]314 (stereo partly shown) [Adipate-HC, reference compound] | 13 | 100 | 3 | 100 |  | water soluble | AUC for hydromorphone released from Adipate-HC, higher than for Bz-HC (sentence on hydrocodone plasma concentrations) ([4]; FIG. 7): approximately 280%; Cmax for hydromorphone released from Adipate-HC, higher than for Bz-HC (sentence on hydrocodone plasma concentrations) ([4]; FIG. 7): ~60%; AUC for hydromorphone released from Adipate-HC, higher than for Bz-HC ([4]; FIG. 8): approximately 750%; Cmax for hydromorphone released from Adipate-HC, higher than for Bz-HC ([4]; FIG. 8): ~660% |
| COc1ccc2c3c1OC1C(OC(=O)c4ccccc4)=CCC4C(C2)N(C)CCC314 (stereo not shown) [Bz-HC, benzoate-hydrocodone] |  |  |  |  | hydrophobic | poor water solubility | hydrocodone plasma concentrations compared with Adipate-HC ([4]; FIG. 7): significantly lower; plasma concentration of hydromorphone compared with Adipate-HC ([4]; FIG. 8): very low; Cmax values of hydrocodone and hydromorphone versus dose ([5]; 0.25 to 4.00 mg/kg, particularly for hydromorphone): more variable; maximum plasma concentrations of hydromorphone versus dose ([5]; doses above 2.00 mg/kg of Bz-HC): did not significantly change; exposures (AUC) to hydrocodone and hydromorphone versus dose ([5]; doses of Bz-HC between 0.25 and 4.00 mg/kg, FIGS. 19 and 20): fairly linear; oral PK curve for released hydrocodone compared with YYFFI-HC ([5]; equivalent to 2 mg/kg freebase hydrocodone, FIG. 5): somewhat similar; AUC for intact Bz-HC as % of the AUC value for hydrocodone [5, 8]: approximately 10%; AUC for intact Bz-HC as % of the AUC value for hydromorphone [5, 8]: ~3%; AUC value for intact Bz-HC as % of the AUC value for hydrocodone [6]: approximately 10% |
| COc1ccc2c3c1OC1C(OC(=O)c4ccccc4N)=CCC4C(C2)N(C)CCC314.Cl.Cl (stereo not shown) [Compound 2-ABz-HC, 2-Aminobenzoic Acid Ester of Hydrocodone Dihydrochloride Salt] | 0 | 16 |  |  |  |  | water, ambient (amount of conjugate hydrolyzed) [7]: 0%; water, 100° C. (amount of conjugate hydrolyzed) [7]: 0%; hydrocodone AUC, lower than for Hydrocodone.BT [5, 9]: approximately 35%; hydrocodone Cmax, lower than for Hydrocodone.BT [5, 9]: ~60%; hydromorphone AUC, lower than for Hydrocodone.BT [5, 10]: approximately 25%; hydromorphone Cmax, lower than for Hydrocodone.BT [5, 10]: ~50% |
| COc1ccc2c3c1O[C@H]1C(OC(=O)c4ccccc4O)=CC[C@H]4[C@@H](C2)N(C)CC[C@]314.Cl [Compound 2-OH-Bz-HC, Salicylic Acid Ester of Hydrocodone Hydrochloride Salt] |  |  |  |  | hydrophobic |  |  |
| COc1ccc2c3c1OC1C(OC(=O)c4cccc(O)c4)=CCC4C(C2)N(C)CCC314 (stereo not shown) [Compound 3-OH-Bz-HC] |  |  |  |  | hydrophobic | poorly water soluble |  |
| COc1ccc(C(=O)OC2=CC[C@H]3[C@H]4Cc5ccc(OC)c6c5[C@@]3(CCN4C)C2O6)cc1 (stereo partly shown) [Compound 4-MeO-Bz-HC] |  |  |  |  | hydrophobic |  | water, ambient (amount of conjugate hydrolyzed) [7]: 0%; water, 100° C. (amount of conjugate hydrolyzed) [7]: 0% |
| COc1ccc2c3c1O[C@H]1C(OC(=O)c4ccc(O)cc4)=CC[C@H]4[C@@H](C2)N(C)CC[C@]314 [Compound 4-OH-Bz-HC] | 0 | 30 | 1 | 23 | hydrophobic |  | water, ambient (amount of conjugate hydrolyzed) [7]: 0%; water, 100° C. (amount of conjugate hydrolyzed) [7]: 0% |
| COc1ccc2c3c1OC1C(OC(=O)COCC(=O)O)=CC[C@H]4[C@@H](C2)N(C)CC[C@]314 (stereo partly shown) [Diglycolate-HC, reference compound] |  |  |  |  |  | water soluble |  |
| COc1ccc2c3c1OC1C(OC(=O)c4cccnc4)=CCC4C(C2)N(C)CCC314 (stereo not shown) [Nicotinate-HC, nicotinate-hydrocodone] |  |  |  |  | hydrophobic |  | hydrocodone and hydromorphone plasma concentrations compared with unconjugated Hydrocodone.BT ([5]; equivalent to 2 mg/kg hydrocodone freebase, FIGS. 9 and 10): below the respective concentrations; AUC values of hydrocodone and hydromorphone compared with Hydrocodone.BT ([5]; same dose based on hydrocodone freebase): within the range of bioequivalence |
| COc1ccc2c3c1OC1C(OC(=O)c4ccc5c(c4)OCO5)=CC[C@H]4[C@@H](C2)N(C)CC[C@]314 (stereo partly shown) [Piperonylate-HC] |  |  |  |  | hydrophobic | poorly water soluble |  |
| Tyr-Tyr-Phe-Phe-Ile-Hydrocodone [YYFFI-HC, reference compound] |  |  | 0 | 70 |  |  |  |
